Eleven compounds from ChEMBL document CHEMBL1201862, “PubChem BioAssay data set” (2004) can be followed below.

Test systems include Hs-578T; OVCAR-5; SK-OV-3; SNB-19; SK-MEL-28; KM12; PC-3; SF-539; NCI-H23; ACHN; HT-29; HCT-15; MDA-MB-231; CAKI-1; RPMI-8226; UACC-257; Malme-3M; M14; NCI/ADR-RES; HCC 2998.
What all share (assay): growth of human tumour cells (NCI), 48 h

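Results reflect a 48-hour exposure of cells in 96-well plates to compound at five concentrations. GI50 is the concentration that inhibits growth by half.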 Activity calls are given as the source filed them. Cut-off read from the data, not from the text of the source: active = GI50 up to about 1.1 µM and inactive = higher.

On to `CCn1c2ccccc2c2nnc(NCCCO)nc21`, for which the GI50 was 50.2 µM (inactive) in the test on Hs-578T; > 100 µM (inactive) with OVCAR-5; > 100 µM (inactive) in the test on SK-OV-3; > 100 µM (inactive) in the test on SNB-19; > 100 µM (inactive) in the test on SK-MEL-28; > 100 µM (inactive) in the test with KM12. For the same compound, the GI50 in the test on PC-3 is > 100 µM (inactive); in the test on SF-539, > 100 µM (inactive); with NCI-H23, > 100 µM (inactive); with ACHN it was > 100 µM (inactive); in the test with HT-29 it was > 100 µM (inactive); in the test with HCT-15, over 100 µM. Besides, the GI50 in the test with MDA-MB-231, in the test on CAKI-1, with RPMI-8226, in the test on UACC-257, in the test with Malme-3M and with M14 was > 100 µM (inactive) throughout. Besides, the GI50 in the test with NCI/ADR-RES is > 100 µM (inactive).
In the case of `COc1cc(C2S/C(=C/c3ccccc3)C(=O)N2c2ccc(Cl)c(Cl)c2)cc(OC)c1OC` (stereo not drawn), the GI50 in the test with Hs-578T was 15 µM (inactive); with OVCAR-5 it was 10.1 µM (inactive); with SK-OV-3, > 91 µM (inactive); in the test with SNB-19, 59.2 µM (inactive); in the test with SK-MEL-28, 17.1 µM (inactive); in the test on KM12 it was 18.1 µM (inactive). Besides, the GI50 in the test on PC-3 was 20.5 µM (inactive); with NCI-H23, 48.9 µM (inactive); in the test with ACHN it was 18.7 µM (inactive); in the test on HT-29, 55.5 µM (inactive); in the test on HCT-15 it was 18.7 µM; with MDA-MB-231, > 50.8 µM (inactive). Besides, the GI50 with CAKI-1 is > 70.8 µM (inactive); with RPMI-8226, 46.3 µM (inactive); with UACC-257, > 70.6 µM (inactive); in the test on Malme-3M, 42 µM (inactive); in the test with M14, 28.8 µM (inactive); with NCI/ADR-RES, 32.6 µM (inactive). The GI50 in the test with HCC 2998 was 58.9 µM (inactive).
As for `COC(=O)CCC1(C)C2CCC1(C)/C(=N/O)C2` (stereo not drawn), the GI50 in the test with Hs-578T, in the test on OVCAR-5, with SK-OV-3, in the test on SNB-19, in the test on SK-MEL-28 and with KM12 was > 100 µM (inactive) throughout. The GI50 in the test with PC-3 was > 100 µM (inactive); in the test with NCI-H23, > 100 µM (inactive); in the test on ACHN, > 100 µM (inactive); in the test with HT-29 it was > 100 µM (inactive); in the test with HCT-15, over 100 µM; in the test with MDA-MB-231, > 100 µM (inactive). Moreover, the GI50 with CAKI-1, in the test on RPMI-8226, in the test on UACC-257, in the test on Malme-3M, in the test on M14 and in the test on NCI/ADR-RES was > 100 µM (inactive) each time. Besides, the GI50 in the test on HCC 2998 was > 100 µM (inactive).
Consider `O=C(CNc1ccc(Cl)cc1Cl)Nn1c(-c2ccccc2)nc2ccccc2c1=O`, for which the GI50 in the test on Hs-578T is 23.9 µM (inactive); with OVCAR-5, 23 µM (inactive); in the test on SK-OV-3 it was 28.2 µM (inactive); with SNB-19 it was 18.5 µM (inactive); in the test on SK-MEL-28, 21.1 µM (inactive); with KM12 it was > 10 µM (inactive). Also, the GI50 is 14.9 µM (inactive) with PC-3; 19.6 µM (inactive) in the test with SF-539; 12.6 µM (inactive) in the test with NCI-H23; 17.6 µM (inactive) in the test on ACHN; 16.1 µM (inactive) in the test with HT-29; 19.1 µM in the test on HCT-15. Also, the GI50 with MDA-MB-231 is 14.8 µM (inactive); in the test with RPMI-8226, 21.3 µM (inactive); with UACC-257, 21.6 µM (inactive); with Malme-3M, 18.2 µM (inactive); in the test with M14, 13.7 µM (inactive); in the test with NCI/ADR-RES, 20.3 µM (inactive). Besides, in the test with HCC 2998, the GI50 is 17.7 µM (inactive).
With `c1cc(-c2csc(-c3ccsc3)c2)cs1`, the GI50 is > 100 µM (inactive) in the test on Hs-578T; 88.9 µM (inactive) with OVCAR-5; > 100 µM (inactive) with SK-OV-3; 53.1 µM (inactive) with SNB-19; > 100 µM (inactive) in the test with SK-MEL-28; 63.4 µM (inactive) in the test on KM12. Also, the GI50 in the test on PC-3 was 58.9 µM (inactive); in the test on SF-539, 36.5 µM (inactive); in the test with NCI-H23, > 100 µM (inactive); in the test with ACHN, > 100 µM (inactive); in the test with HT-29 it was > 100 µM (inactive); in the test with HCT-15, over 100 µM. The GI50 was > 100 µM (inactive) in the test with MDA-MB-231; > 100 µM (inactive) in the test on CAKI-1; > 100 µM (inactive) in the test on RPMI-8226; > 100 µM (inactive) in the test with UACC-257; 47 µM (inactive) in the test on M14; > 100 µM (inactive) in the test with NCI/ADR-RES. For the same compound, the GI50 in the test with HCC 2998 is 42.5 µM (inactive).
For the compound `O=C1C(Sc2ccc3ccccc3c2)=C(Sc2ccc3ccccc3c2)C(=O)c2ccccc21`, the GI50 in the test on Hs-578T is 8.57 µM (inactive); in the test on OVCAR-5 it was 11.3 µM (inactive); in the test with SK-OV-3, 22.7 µM (inactive); with SNB-19, 8.09 µM (inactive); in the test with SK-MEL-28, 15.2 µM (inactive); in the test on PC-3, 14.4 µM (inactive). Moreover, the GI50 in the test with SF-539 was 10.2 µM (inactive); in the test with NCI-H23, 5.13 µM (inactive); in the test with ACHN, 4.55 µM (inactive); with HT-29, 15.6 µM (inactive); in the test with HCT-15 it was 9.06 µM; with MDA-MB-231, 4.59 µM (inactive). The GI50 in the test on UACC-257 was 3.57 µM (inactive); in the test with M14, 11.5 µM (inactive); with NCI/ADR-RES, 13.2 µM (inactive); in the test on HCC 2998 it was 5.38 µM (inactive).
Regarding `Cc1ccc([N+](=O)[O-])cc1S(=O)(=O)Nc1ccc(C2=NN(S(=O)(=O)c3cc([N+](=O)[O-])ccc3C)C(c3ccccc3)C2)cc1` (stereo not drawn), the GI50 with Hs-578T was < 0.01 µM (active); in the test on OVCAR-5 it was 51.2 µM (inactive); with SK-OV-3 it was 27.4 µM (inactive); with SNB-19 it was 36.4 µM (inactive); in the test with SK-MEL-28, 82.8 µM (inactive); in the test with KM12, 34.9 µM (inactive). Moreover, the GI50 was 26.9 µM (inactive) in the test with PC-3; 24.2 µM (inactive) in the test with NCI-H23; 31.8 µM (inactive) in the test on ACHN; 33.5 µM (inactive) with HT-29; 30.9 µM with HCT-15; 26.1 µM (inactive) with MDA-MB-231. Moreover, the GI50 with CAKI-1 was 35.8 µM (inactive); with RPMI-8226 it was 22.3 µM (inactive); with UACC-257, 24.8 µM (inactive); in the test on Malme-3M it was 17.7 µM (inactive); in the test on M14, 30.9 µM (inactive); in the test with NCI/ADR-RES, 25.5 µM (inactive). For the same compound, in the test with HCC 2998, the GI50 is 22.2 µM (inactive).
With `N#CCCN(C(=O)Nc1ccc(NC(=O)N(CCC#N)c2ccccc2)cc1)c1ccccc1`, the GI50 in the test on Hs-578T, in the test with OVCAR-5, in the test on SK-OV-3, in the test on SNB-19, with SK-MEL-28 and in the test on KM12 was > 100 µM (inactive) in each case. Also, the GI50 was > 100 µM (inactive) in the test with PC-3; > 100 µM (inactive) in the test on NCI-H23; > 100 µM (inactive) in the test with ACHN; > 100 µM (inactive) with HT-29; over 100 µM with HCT-15; > 100 µM (inactive) with MDA-MB-231. Also, the GI50 in the test on CAKI-1, in the test with RPMI-8226, in the test with Malme-3M, with M14, in the test with NCI/ADR-RES and in the test on HCC 2998 was > 100 µM (inactive) throughout.
Take `Cc1nc2c(sc(=S)n2-c2ccccc2)c2nc3ncccc3n12`: the GI50 in the test with Hs-578T was > 100 µM (inactive); in the test on OVCAR-5, > 100 µM (inactive); in the test on SK-OV-3, 33 µM (inactive); in the test with SNB-19, 54.5 µM (inactive); with SK-MEL-28, > 100 µM (inactive); in the test with KM12, > 100 µM (inactive). Also, the GI50 is > 100 µM (inactive) in the test with PC-3; > 100 µM (inactive) in the test on NCI-H23; > 100 µM (inactive) with ACHN; > 100 µM (inactive) with HT-29; over 100 µM with HCT-15; 45.1 µM (inactive) in the test on MDA-MB-231. Also, the GI50 in the test with CAKI-1, with RPMI-8226, in the test with UACC-257, in the test on Malme-3M, in the test with M14 and in the test on NCI/ADR-RES was > 100 µM (inactive) in each case. The GI50 with HCC 2998 is > 100 µM (inactive).
Consider `COC(=O)NC1C(C)OC(OC2C/C=C(/C)C3C=CC4C(OC5CC(OC6CC(OC7CC(O)C(O)C(C)O7)C(OC7CC(O)C(OC)C(C)O7)C(C)O6)C(O)C(C)O5)C(C)CC(C)C4C3(C)C(=O)C3=C(O)C4(CC(C)C(CO)=CC4/C=C\2C)OC3=O)CC1(C)[N+](=O)[O-]` (stereo not drawn), for which the GI50 is 6.85 µM (inactive) in the test with Hs-578T; 16.9 µM (inactive) with OVCAR-5; 21.2 µM (inactive) in the test on SNB-19; 8.34 µM (inactive) in the test on SK-MEL-28; 6.7 µM (inactive) in the test with KM12; 16.3 µM (inactive) with PC-3. In addition, the GI50 in the test with SF-539 is 17.8 µM (inactive); with NCI-H23, 12.9 µM (inactive); in the test on ACHN it was 11.6 µM (inactive); with HT-29, 7.83 µM (inactive); in the test on HCT-15 it was 15.6 µM; in the test on MDA-MB-231, 12 µM (inactive). Also, the GI50 in the test with CAKI-1 was 16 µM (inactive); with RPMI-8226 it was 1.6 µM (inactive); with UACC-257, 9.89 µM (inactive); in the test with M14 it was 17.1 µM (inactive); in the test on NCI/ADR-RES, 38.7 µM (inactive); in the test with HCC 2998 it was 3.49 µM (inactive).
In the case of `CC(C)(C)c1cc(C=C(C#N)C#N)cc(C(C)(C)C)c1O` [TYRPHOSTIN A9], the GI50 was 0.384 µM (active) in the test with Hs-578T; 4.03 µM (inactive) in the test on OVCAR-5; 0.392 µM (active) with SNB-19; 3.2 µM (inactive) with SK-MEL-28; 0.395 µM (active) in the test with KM12; 0.256 µM (active) in the test on PC-3. Besides, the GI50 is 0.259 µM (active) with SF-539; 0.809 µM (active) in the test on NCI-H23; 0.356 µM (active) in the test with ACHN; 0.375 µM (active) with HT-29; 0.366 µM with HCT-15; 1.56 µM (inactive) in the test on MDA-MB-231. In addition, the GI50 with CAKI-1 was 0.738 µM (active); in the test with UACC-257, 0.281 µM (active); with Malme-3M, 0.439 µM (active); in the test with M14, 0.944 µM (active); with NCI/ADR-RES, 0.299 µM (active); with HCC 2998, 0.456 µM (active).
